Assays:
Format in all cases: in vivo
Abutilon [1] = assay: Pre-emergence herbicidal action; details: rating 10=total damage, 0=no action; for Pre-emergent Herbicidal Activity: Abutilon: Table B5
Protocol: (§1) Monocotyledonous and dicotyledonous test plants are sown in standard soil in plastic pots. […] The test plants are then grown in a greenhouse under optimum conditions. After a test duration of 3 weeks, the test is evaluated in accordance with a scale of ten ratings (10=total damage, 0=no action). Ratings of from 10 to 7 (especially from 10 to 8) indicate good to very good herbicidal action.

Amaranthus = assay: Pre-emergence herbicidal action; details: rating 10=total damage, 0=no action; for Pre-emergent Herbicidal Activity: Amaranthus: Table B5
Protocol: as §1

Digitaria [2] = assay: Pre-emergence herbicidal action; details: rating 10=total damage, 0=no action; for Pre-emergent Herbicidal Activity: Digitaria: Table B5
Protocol: as §1

Echinochloa = assay: Pre-emergence herbicidal action; details: rating 10=total damage, 0=no action; for Pre-emergent Herbicidal Activity: Echinochloa: Table B5
Protocol: as §1

Panicum [3] = assay: Pre-emergence herbicidal action; details: 250 g/ha; after 3 weeks; rating 10=total damage, 0=no action
Protocol: as §1

Chenopodium [4] = assay: Pre-emergence herbicidal action; details: 250 g/ha; after 3 weeks; rating 10=total damage, 0=no action
Protocol: (§2) Monocotyledonous and dicotyledonous test plants are sown in standard soil in plastic pots. Immediately after sowing, the test compounds, in the form of an aqueous suspension (prepared from a 25% wettable powder (Example F3, b) according to WO 97/34485) or in the form of an emulsion (prepared from a 25% emulsifiable concentrate (Example F1, c)), are applied by spraying a concentration corresponding to 125 g or 250 g of active ingredient/ha (500 liter of water/ha). The test plants are then grown in a greenhouse under optimum conditions. After a test duration of 3 weeks, the test is evaluated in accordance with a scale of ten ratings (10=total damage, 0=no action). Ratings of from 10 to 7 (especially from 10 to 8) indicate good to very good herbicidal action.

Stellaria [5] = assay: Pre-emergence herbicidal action; details: 250 g/ha; after 3 weeks; rating 10=total damage, 0=no action
Protocol: as §2

Corn = assay: Pre-emergent herbicidal activity on crop plant; details: Table B5, crop plant, rating 10=total damage, 0=no action
Protocol: as §1
(§3) In the following Table B3, the pre-emergent herbicidal activity of compound H-14 according to the invention is compared with 4 compounds according to the prior art. All compounds are structurally identical except for the nature of the alkylene linker attached to the pyridine ring.

Soya = assay: Pre-emergent herbicidal activity on crop plant; details: Table B5, crop plant, rating 10=total damage, 0=no action
Protocol: as §1, §3

Brachiaria = assay: Pre-emergent herbicidal activity; details: Table B5, rating 10=total damage, 0=no action
Protocol: as §1, §3

Scirpus = assay: Pre-emergent herbicidal activity; details: Table B5, rating 10=total damage, 0=no action
Protocol: as §1
In the following Table B5, the pre-emergent herbicidal activity of compound H-9 according to the invention is compared with compound E according to the prior art. Both compounds are structurally identical except for the length of the alkylene linker attached to the pyridine ring.

Abutilon [6] = assay: Post-emergence herbicidal action; details: 250 g/ha; 4- to 6-leaf stage; after about 18 days; rating 10=total damage, 0=no action
Protocol: (§4) In a greenhouse, monocotyledonous and dicotyledonous test plants are grown in standard soil in plastic pots and at the 4- to 6-leaf stage are sprayed with an aqueous suspension of the test compounds of formula I prepared from a 25% wettable powder (Example F3, b) according to WO 97/34485) or with an emulsion of the test compounds of formula I prepared from a 25% emulsifiable concentrate (Example F1, c) according to WO 97/34485), in a concentration corresponding to 125 g or 250 g of active ingredient/ha (500 liter of water/ha). The test plants are then grown on in a greenhouse under optimum conditions. After a test duration of about 18 days, the test is evaluated in accordance with a scale of ten ratings (10=total damage, 0=no action). Ratings of from 10 to 7 (especially from 10 to 8) indicate good to very good herbicidal action.

Chenopodium [7] = assay: Post-emergence herbicidal action; details: 250 g/ha; 4- to 6-leaf stage; after about 18 days; rating 10=total damage, 0=no action
Protocol: as §4

Digitaria [8] = assay: Post-emergence herbicidal action; details: 250 g/ha; 4- to 6-leaf stage; after about 18 days; rating 10=total damage, 0=no action
Protocol: as §4

Ipomea = assay: Post-emergence herbicidal action; details: 250 g/ha; 4- to 6-leaf stage; after about 18 days; rating 10=total damage, 0=no action
Protocol: as §4

Panicum [9] = assay: Post-emergence herbicidal action; details: 250 g/ha; 4- to 6-leaf stage; after about 18 days; rating 10=total damage, 0=no action
Protocol: as §4

Setaria = assay: Post-emergence herbicidal action; details: 250 g/ha; 4- to 6-leaf stage; after about 18 days; rating 10=total damage, 0=no action
Protocol: as §4

Sinapis = assay: Post-emergence herbicidal action; details: 250 g/ha; 4- to 6-leaf stage; after about 18 days; rating 10=total damage, 0=no action
Protocol: as §4

Stellaria [10] = assay: Post-emergence herbicidal action; details: 250 g/ha; 4- to 6-leaf stage; after about 18 days; rating 10=total damage, 0=no action
Protocol: as §4

Row | SMILES | Pre-emergent Herbicidal Activity: Abutilon (Abutilon [1]; 30 g/ha) | Pre-emergent Herbicidal Activity: Abutilon (Abutilon [1]; 60 g/ha) | Pre-emergent Herbicidal Activity: Amaranthus (Amaranthus; 30 g/ha) | Pre-emergent Herbicidal Activity: Amaranthus (Amaranthus; 60 g/ha) | Pre-emergent Herbicidal Activity: Digitaria (Digitaria [2]; 30 g/ha) | Pre-emergent Herbicidal Activity: Digitaria (Digitaria [2]; 60 g/ha) | Pre-emergent Herbicidal Activity: Echinochloa (Echinochloa; 30 g/ha) | Pre-emergent Herbicidal Activity: Echinochloa (Echinochloa; 60 g/ha) | Pre-emergent Herbicidal Activity: Mais (Corn; 30 g/ha) | Pre-emergent Herbicidal Activity: Mais (Corn; 60 g/ha) | Pre-emergent Herbicidal Activity: Soja (Soya; 30 g/ha) | Pre-emergent Herbicidal Activity: Soja (Soya; 60 g/ha) | Pre-emergent Herbicidal Activity: Brachiaria (Brachiaria; 30 g/ha) | Pre-emergent Herbicidal Activity: Brachiaria (Brachiaria; 60 g/ha) | Pre-emergent Herbicidal Activity: Scirpus (Scirpus; 30 g/ha) | Pre-emergent Herbicidal Activity: Scirpus (Scirpus; 60 g/ha) | further results
1 | COCCCc1nc(C(F)(F)Cl)ccc1C(=O)C1C(=O)C2CCC(C2)C1=O (centres unmarked) [Compound H-9] | 8 | 9 | 8 | 8 | 8 | 9 | 9 | 10 | 0 | 1 | 0 | 1 | 9 | 9 | 10 | 10 | Pre-emergence herbicidal action: Abutilon (Abutilon [1]; 250 g/ha, after 3 weeks): 10; Pre-emergence herbicidal action: Amaranthus (Amaranthus; 250 g/ha, after 3 weeks): 9; Pre-emergence herbicidal action: Digitaria (Digitaria [2]; 250 g/ha, after 3 weeks): 10; Pre-emergence herbicidal action: Echinochloa (Echinochloa; 250 g/ha, after 3 weeks): 10; Pre-emergence herbicidal action: Panicum (Panicum [3]): 10; Pre-emergence herbicidal action: Chenopodium (Chenopodium [4]): 9; Pre-emergence herbicidal action: Stellaria (Stellaria [5]): 7; Post-emergence herbicidal action: Abutilon (Abutilon [6]): 9; Post-emergence herbicidal action: Chenopodium (Chenopodium [7]): 9; Post-emergence herbicidal action: Digitaria (Digitaria [8]): 9; Post-emergence herbicidal action: Ipomea (Ipomea): 9; Post-emergence herbicidal action: Panicum (Panicum [9]): 9; Post-emergence herbicidal action: Setaria (Setaria): 9; Post-emergence herbicidal action: Sinapis (Sinapis): 7; Post-emergence herbicidal action: Stellaria (Stellaria [10]): 8
2 | COCc1nc(C(F)(F)Cl)ccc1C(=O)C1C(=O)C2CCC(C2)C1=O (centres unmarked) [E, reference compound] | 0 | 0 | 5 | 7 | 6 | 6 | 8 | 9 | 0 | 0 | 2 | 4 | 0 | 0 | 9 | 9 | 
